Legend:
[1] = biological target: 5-hydroxytryptamine receptor 2A (Homo sapiens, UniProt P28223); assay: Binding affinity at 5-HT2A receptor by radioligand displacement assay
[2] = biological target: Histamine H1 receptor (Homo sapiens, UniProt P35367); assay: Displacement of [3H]-Pyrilamine from human histamine H1 receptor by liquid scintillation counter
[3] = biological target: T1, 5-hydroxytryptamine receptor 2C (Homo sapiens, UniProt P28335); assay: Binding affinity at 5-HT2C receptor by radioligand displacement assay
T1 sequence (P28335 whole entry): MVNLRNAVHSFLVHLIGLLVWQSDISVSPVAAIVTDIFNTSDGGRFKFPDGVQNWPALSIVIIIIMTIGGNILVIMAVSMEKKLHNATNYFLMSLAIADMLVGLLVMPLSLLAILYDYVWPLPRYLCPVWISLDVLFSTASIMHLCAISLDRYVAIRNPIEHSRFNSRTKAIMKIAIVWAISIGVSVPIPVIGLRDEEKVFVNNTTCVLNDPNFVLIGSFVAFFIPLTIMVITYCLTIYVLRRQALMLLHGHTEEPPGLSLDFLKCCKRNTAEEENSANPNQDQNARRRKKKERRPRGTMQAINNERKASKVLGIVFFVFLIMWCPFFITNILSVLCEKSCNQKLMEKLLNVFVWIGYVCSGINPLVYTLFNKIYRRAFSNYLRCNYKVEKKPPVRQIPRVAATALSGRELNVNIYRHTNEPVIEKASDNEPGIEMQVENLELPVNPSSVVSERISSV

[4] = biological target: D(2) dopamine receptor (Homo sapiens, UniProt P14416); assay: Displacement of [3H]-N-methylspiperone from dopamine D2 receptor expressed in human MES-23.5 cells
D(2) dopamine receptor, sequence (P14416 whole entry): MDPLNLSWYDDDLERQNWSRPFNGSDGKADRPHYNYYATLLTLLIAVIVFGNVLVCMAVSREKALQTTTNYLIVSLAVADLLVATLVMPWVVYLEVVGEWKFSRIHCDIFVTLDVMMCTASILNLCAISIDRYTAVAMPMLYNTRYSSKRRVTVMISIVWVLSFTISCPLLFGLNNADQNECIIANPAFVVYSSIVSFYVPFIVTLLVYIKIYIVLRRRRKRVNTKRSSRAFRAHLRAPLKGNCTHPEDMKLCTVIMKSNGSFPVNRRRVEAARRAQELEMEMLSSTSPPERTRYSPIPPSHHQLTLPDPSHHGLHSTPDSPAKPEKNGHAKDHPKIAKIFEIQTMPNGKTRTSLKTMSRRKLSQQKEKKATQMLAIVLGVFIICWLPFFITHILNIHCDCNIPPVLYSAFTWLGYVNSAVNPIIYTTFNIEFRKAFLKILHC

5-hydroxytryptamine receptor 2A, sequence (P28223 whole entry): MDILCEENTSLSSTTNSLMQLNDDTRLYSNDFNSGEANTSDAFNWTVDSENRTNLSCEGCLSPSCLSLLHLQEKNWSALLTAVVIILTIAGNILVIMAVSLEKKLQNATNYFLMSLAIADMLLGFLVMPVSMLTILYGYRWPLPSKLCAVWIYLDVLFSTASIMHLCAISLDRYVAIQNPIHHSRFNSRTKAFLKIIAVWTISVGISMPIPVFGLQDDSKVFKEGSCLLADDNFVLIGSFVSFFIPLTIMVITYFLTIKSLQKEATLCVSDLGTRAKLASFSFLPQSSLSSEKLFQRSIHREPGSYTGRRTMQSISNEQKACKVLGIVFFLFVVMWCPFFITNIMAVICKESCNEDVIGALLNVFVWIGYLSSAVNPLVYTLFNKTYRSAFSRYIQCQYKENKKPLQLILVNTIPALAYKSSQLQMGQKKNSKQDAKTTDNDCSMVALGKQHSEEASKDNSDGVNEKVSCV
Histamine H1 receptor, sequence (P35367 whole entry): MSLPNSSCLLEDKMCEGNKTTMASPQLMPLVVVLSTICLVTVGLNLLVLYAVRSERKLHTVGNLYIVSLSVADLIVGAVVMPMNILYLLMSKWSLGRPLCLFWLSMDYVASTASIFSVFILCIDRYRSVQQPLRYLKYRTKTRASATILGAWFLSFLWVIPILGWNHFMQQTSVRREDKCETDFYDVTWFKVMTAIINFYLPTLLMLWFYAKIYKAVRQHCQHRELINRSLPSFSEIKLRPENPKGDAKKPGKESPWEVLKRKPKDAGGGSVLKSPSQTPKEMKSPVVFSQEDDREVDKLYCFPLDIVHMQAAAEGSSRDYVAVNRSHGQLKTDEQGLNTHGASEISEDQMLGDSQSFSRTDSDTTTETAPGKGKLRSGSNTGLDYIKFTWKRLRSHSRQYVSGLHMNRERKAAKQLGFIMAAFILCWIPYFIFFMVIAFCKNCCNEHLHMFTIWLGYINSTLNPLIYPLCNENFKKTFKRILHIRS

SMILES | Ki [1] [µM] | Ki [2] [µM] | Ki [3] [µM] | Ki [4] [µM]
OC1(c2ccc(Cl)cc2)C[C@H]2CC[C@@H](C1)N2CCCCc1nc2ccccc2s1 (some centres undefined) | > 10 | 0.187 | 4.62 | –
O=C(CCCCN1[C@@H]2CC[C@H]1CC(O)(c1ccc(Cl)cc1)C2)c1nc2ccccc2s1 (some centres undefined) | – | – | – | 0.18
